Source: patent US20250283049A1, “AGENT FOR CULTURING ORGANOID IN ABSENCE OF EXTRACELLULAR MATRIX” (KEIO UNIVERSITY, priority 2022, published 2025)

Assays:
Type in all cases: cell-based
AXIN2 gene = AXIN2 gene expression by quantitative real-time PCR in human small intestine-derived organoids; conditions: absence of Matrigel; Lats-IN 10 μM
Experimental: Human small intestine-derived organoids and human large intestine-derived organoids were cultured in the absence or presence of Matrigel (registered trademark) and in the absence or presence of Lats-IN (final concentration: 10 μM), and the expression level of the AXIN2 gene, whose expression is regulated by Wnt, was examined by quantitative real-time PCR.
FIG. 16 presents graphs showing the results of quantitative real-time PCR.

[1] = system: phosphorylated YAP (Ser127); test: Examination of phosphorylation of YAP by Western blotting in human small intestine-derived organoids; conditions: 10 μM; in both presence and absence of Matrigel; compared to when Lats-IN is absent
Experimental: Human small intestine-derived organoids were cultured in the absence and presence of Matrigel (registered trademark) and in the absence and presence of a LATS kinase inhibitor (final concentration: 10 μM), and phosphorylation of YAP was confirmed by Western blotting.
In FIG. 4, “pYAP” indicates phosphorylated YAP, and “YAP” indicates total YAP (the sum of phosphorylated YAP and non-phosphorylated YAP). The antibody against phosphorylated YAP used was phospho-YAP (Ser127) (#4911, Cell Signaling Technology, Inc.). The antibody against total YAP used was total-YAP (#14074, Cell Signaling Technology, Inc.).

[2] = system: human large intestine-derived organoid; test: Culture of organoids in absence of Matrigel with LATS kinase inhibitor; cell number by ATP (CellTiter-Glo 3D)
Experimental: In this experimental example, a human small intestine-derived organoid and human large intestine-derived organoid established in the presence of Matrigel (registered trademark) were cultured in the absence of Matrigel (registered trademark) and in the presence of a LATS kinase inhibitor (final concentration: 10 μM), and their dynamics were observed. The procedure was the same as in Experimental Example 1, except that each organoid was cultured in the absence of Matrigel (registered trademark).
The lower left panel of FIG. 3 is a photograph of a control (Ctrl) human large intestine-derived organoid cultured in the absence of Lats-IN, and the lower center panel of FIG. 3 is a photograph of a human large intestine-derived organoid cultured in the presence of Lats-IN. The scale bar is 100 μm. The lower right panel of FIG. 3 is a graph showing the results of measuring cell number in the human large intestine-derived organoids cultured in the presence of the control (Ctrl) and Lats-IN. The vertical axis of the graph represents luminescence intensity (relative value) indicating the amount of ATP present. […]
FIG. 8 presents graphs showing the results of measuring the proliferation of the human small intestine-derived and human large intestine-derived organoids in the absence of Lats-IN (Ctrl), in the presence of Lats-IN (Lats-IN), in the presence of Lats-IN and MYF01-37 (Lats-IN+MYF), and in the presence of MYF01-37 (MYF). The cell proliferation was measured by measuring ATP using a commercially available kit (product name “CellTiter-Glo 3D,” Promega Corporation). The vertical axis of the graph represents luminescence intensity (relative value) indicating the amount of ATP present. […]
FIG. 26 presents graphs showing the results of measuring cell number in each organoid after 6 days of culture by measuring ATP using a commercially available kit (product name “CellTiter-Glo 3D,” Promega Corporation). The vertical axis of the graph represents luminescence intensity (relative value) indicating the amount of ATP present.

[3] = system: human large intestine-derived organoids; test: Immunostaining for localization of YAP and Ki67; conditions: 10 μM Lats-IN; in both presence and absence of Matrigel; approximately 10% without Lats-IN
Experimental: Human small intestine-derived organoids and human large intestine-derived organoids were cultured in the absence and presence of Matrigel (registered trademark) and in the absence and presence of a LATS kinase inhibitor (final concentration: 10 μM) in the same manner as in Experimental Example 2. Subsequently, immunostaining was performed to confirm the localization of YAP. In addition, Ki67, a marker for cell proliferation, was detected to confirm proliferating cells.
The leftmost column of FIG. 6 presents photographs showing the results of immunostaining of the human large intestine-derived organoids cultured in the presence of Matrigel (registered trademark) and in the absence of Lats-IN (Ctrl). […]
FIG. 7 is a graph summarizing the results of FIGS. 5 and 6. As a result, in both the presence and absence of Matrigel (registered trademark), in the absence of Lats-IN, YAP was localized in the cytoplasm, and when the number of Ki67-positive cells, which indicates cell proliferation, was counted, the percentage of Ki67-positive cells was approximately 10% of the total cells. In contrast, in both the presence and absence of Matrigel (registered trademark), in the presence of Lats-IN, the number of cells in which YAP was localized in the nucleus was counted. […]

Compound: O=C(N=c1sccn1Cc1ccccc1)c1c[nH]c2ncccc12 [Lats-IN]
- expression level of AXIN2 (AXIN2 gene): increased to a level equivalent to that in the presence of Matrigel
- phosphorylation of YAP [1]: significantly suppressed
- cell proliferation (ATP luminescence) ([2]; Experimental Example 5, Lats-IN 10 μM alone): activated
- cell proliferation (cell number, ATP luminescence) ([2]; final concentration 10 μM, 7 days of culture, vs control): significantly activated
- percentage of Ki67-positive cells [3]: ≥ 50 % of the total cells
